# Earlier results in US6022558A, “Transdermal preparations of oxicams” (priority 1997, dated 2000).
# Columns and labels:
# [1] = rats and rabbits
# [2] = single or multiple doses in patients
# [3] = oral administration
structure (smiles),measurement,setting,value
"CN1C(C(=O)Nc2ccccn2)=C(O)c2ccccc2S1(=O)=O [piroxicam, 4-hydroxyl-2-methyl-N-(2-pyridyl)-2H-1,2-benzo-thiazine-3-carboxamide-1,1-dioxide]",Oral absorption,[1],almost completely absorbed
same,Cmax and AUC dependence on dose,[2],proportional to the dose administered
same,Pharmacokinetic linearity,[2],possessed a linear pharmacokinetic property
same,Second plasma maximum,[3],shows a second maximum plasma concentration due to hepatic and intestinal recycling
